# From ChEMBL document CHEMBL3822442, “Synthesis and Pharmacological Characterization of Novel Glucagon-like Peptide-2 (GLP-2) Analogues with Low Systemic Clearance” (J Med Chem, 2016)
# Assays:
# HEK293 = experiment: Selectivity ratio of EC50 for human GLP1R expressed in HEK293 cells to EC50 for human GLP2R expressed in HEK293; assay type: cell-based
# [1] = target: T1, Glucagon-like peptide 2 receptor (Homo sapiens, UniProt O95838); experiment: Agonist activity at human GLP2R expressed in HEK293 cells after 5 hrs by luciferase reporter gene assay; assay type: cell-based
# T1 sequence (O95838 whole entry): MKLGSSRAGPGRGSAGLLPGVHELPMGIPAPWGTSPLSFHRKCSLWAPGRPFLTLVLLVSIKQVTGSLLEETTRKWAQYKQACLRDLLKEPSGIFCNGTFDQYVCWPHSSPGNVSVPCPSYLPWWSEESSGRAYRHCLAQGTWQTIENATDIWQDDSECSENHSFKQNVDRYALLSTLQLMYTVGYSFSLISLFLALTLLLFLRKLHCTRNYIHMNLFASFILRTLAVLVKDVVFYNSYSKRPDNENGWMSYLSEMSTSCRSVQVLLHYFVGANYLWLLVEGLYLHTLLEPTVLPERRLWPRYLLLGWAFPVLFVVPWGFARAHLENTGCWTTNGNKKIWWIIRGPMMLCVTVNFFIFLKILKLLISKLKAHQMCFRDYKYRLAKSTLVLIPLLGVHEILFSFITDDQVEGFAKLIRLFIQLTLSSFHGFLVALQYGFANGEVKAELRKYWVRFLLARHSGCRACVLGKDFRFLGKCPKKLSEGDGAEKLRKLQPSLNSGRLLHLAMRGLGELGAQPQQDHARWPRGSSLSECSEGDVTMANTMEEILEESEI
# [2] = target: Glucagon-like peptide 1 receptor (Homo sapiens, UniProt P43220); experiment: Agonist activity at human GLP1R expressed in HEK293 cells after 5 hrs by luciferase reporter gene assay; assay type: cell-based
# Chain of Glucagon-like peptide 1 receptor (P43220 whole entry): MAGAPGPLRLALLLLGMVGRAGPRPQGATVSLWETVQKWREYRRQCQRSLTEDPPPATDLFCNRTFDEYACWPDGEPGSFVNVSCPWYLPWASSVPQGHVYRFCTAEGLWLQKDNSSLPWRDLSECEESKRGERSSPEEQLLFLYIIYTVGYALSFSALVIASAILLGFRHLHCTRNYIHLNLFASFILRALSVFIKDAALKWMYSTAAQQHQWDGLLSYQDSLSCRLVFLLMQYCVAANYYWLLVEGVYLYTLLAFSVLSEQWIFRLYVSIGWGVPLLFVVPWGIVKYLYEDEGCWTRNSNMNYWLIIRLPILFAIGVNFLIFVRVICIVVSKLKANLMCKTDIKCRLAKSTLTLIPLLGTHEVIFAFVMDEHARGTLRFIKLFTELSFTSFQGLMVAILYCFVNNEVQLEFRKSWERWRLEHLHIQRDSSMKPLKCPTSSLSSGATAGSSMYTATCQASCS
# [3] = Systemic clearance in Sprague-Dawley rat at 0.2 mg/kg, iv through cassette dosing measured up to 300 mins by LC/MS/MS analysis; assay type: ADME, organism-based; conditions: in vivo
Structure (SMILES),Ratio EC50 (HEK293),EC50 [1] [nM],EC50 [2] [nM],clearance [3] [mL/min/kg]
CCCCC(NC(=O)[C@H](CCC(=O)O)NC(=O)[C@H](CC(=O)O)NC(=O)[C@H](CO)NC(=O)[C@H](Cc1ccccc1)NC(=O)[C@H](CO)NC(=O)CNC(=O)[C@H](CC(=O)O)NC(=O)CNC(=O)[C@@H](N)Cc1cnc[nH]1)C(=O)N[C@H](Cc1ccccc1)C(=O)N[C@H](C(=O)N[C@H](C(=O)N[C@@H](CC(C)C)C(=O)N[C@@H](CC(=O)O)C(=O)N[C@@H](CC(C)C)C(=O)N[C@@H](CC(C)C)C(=O)N[C@@H](C)C(=O)N[C@@H](C)C(=O)N[C@@H](CCCNC(=N)N)C(=O)N[C@@H](CC(=O)O)C(=O)N[C@@H](Cc1ccccc1)C(=O)N[C@H](C(=O)N[C@@H](CC(N)=O)C(=O)N[C@@H](Cc1c[nH]c2ccccc12)C(=O)N[C@@H](CC(C)C)C(=O)N[C@H](C(=O)N[C@@H](CCC(N)=O)C(=O)N[C@H](C(=O)N[C@@H](CCCCN)C(=O)N[C@H](C(=O)N[C@H](C(=O)N[C@@H](CC(=O)O)C(=O)NCc1ccccc1)[C@@H](C)O)[C@@H](C)CC)[C@@H](C)O)[C@@H](C)CC)[C@@H](C)CC)[C@@H](C)CC)[C@@H](C)O (stereo partly specified),> 10000,0.1,> 1000,0.1
CCCCC(NC(=O)[C@H](CCC(=O)O)NC(=O)[C@H](CC(=O)O)NC(=O)[C@H](CO)NC(=O)[C@H](Cc1ccccc1)NC(=O)[C@H](CO)NC(=O)CNC(=O)[C@H](CC(=O)O)NC(=O)CNC(=O)[C@@H](N)Cc1cnc[nH]1)C(=O)N[C@H](Cc1ccccc1)C(=O)N[C@H](C(=O)N[C@H](C(=O)N[C@@H](CC(C)C)C(=O)N[C@@H](CC(=O)O)C(=O)N[C@@H](CC(C)C)C(=O)N[C@@H](CC(C)C)C(=O)N[C@@H](C)C(=O)N[C@@H](C)C(=O)N[C@@H](CCCNC(=N)N)C(=O)N[C@@H](CC(=O)O)C(=O)N[C@@H](Cc1ccccc1)C(=O)N[C@H](C(=O)N[C@@H](CC(N)=O)C(=O)N[C@@H](Cc1c[nH]c2ccccc12)C(=O)N[C@@H](CC(C)C)C(=O)N[C@H](C(=O)N[C@@H](CCC(N)=O)C(=O)N[C@H](C(=O)N[C@@H](CCCCN)C(=O)N[C@H](C(=O)N[C@H](C(=O)N[C@@H](CC(=O)O)C(=O)NCCCOCCOCCOCCCNC(=O)COCC(N)=O)[C@@H](C)O)[C@@H](C)CC)[C@@H](C)O)[C@@H](C)CC)[C@@H](C)CC)[C@@H](C)CC)[C@@H](C)O (stereo partly specified),> 33000,0.03,> 1000,0.28
CCCCC(NC(=O)[C@H](CCC(=O)O)NC(=O)[C@H](CC(=O)O)NC(=O)[C@H](CO)NC(=O)[C@H](Cc1ccccc1)NC(=O)[C@H](CO)NC(=O)CNC(=O)[C@H](CC(=O)O)NC(=O)CNC(=O)[C@@H](N)Cc1cnc[nH]1)C(=O)N[C@H](Cc1ccccc1)C(=O)N[C@H](C(=O)N[C@H](C(=O)N[C@@H](CC(C)C)C(=O)N[C@@H](CC(=O)O)C(=O)N[C@@H](CC(C)C)C(=O)N[C@@H](CC(C)C)C(=O)N[C@@H](C)C(=O)N[C@H](C(=O)N[C@@H](CCCNC(=N)N)C(=O)N[C@@H](CC(=O)O)C(=O)N[C@@H](Cc1ccccc1)C(=O)N[C@H](C(=O)N[C@@H](CC(N)=O)C(=O)N[C@@H](Cc1c[nH]c2ccccc12)C(=O)N[C@@H](CC(C)C)C(=O)N[C@H](C(=O)N[C@@H](CCC(N)=O)C(=O)N[C@H](C(=O)N[C@@H](CCCCN)C(N)=O)[C@@H](C)O)[C@@H](C)CC)[C@@H](C)CC)[C@@H](C)O)[C@@H](C)CC)[C@@H](C)O (stereo partly specified),3200,0.04,130,0.49
CCCCC(NC(=O)[C@@H](CCC(=O)O)NC(=O)[C@@H](CC(=O)O)NC(=O)[C@@H](CO)NC(=O)[C@@H](Cc1ccccc1)NC(=O)[C@@H](CO)NC(=O)CNC(=O)[C@@H](CC(=O)O)NC(=O)CNC(=O)[C@@H](N)Cc1cnc[nH]1)C(=O)N[C@@H](Cc1cccc(Cl)c1)C(=O)N[C@@H](C(=O)N[C@@H](C(=O)N[C@H](CC(C)C)C(=O)N[C@H](CC(=O)O)C(=O)NC(Cc1ccc2ccccc2c1)C(=O)N[C@@H](CC(C)C)C(=O)N[C@@H](C)C(=O)N[C@@H](C)C(=O)N[C@@H](CCCNC(=N)N)C(=O)N[C@@H](CC(=O)O)C(=O)N[C@@H](Cc1ccccc1)C(=O)N[C@H](C(=O)N[C@@H](CC(N)=O)C(=O)N[C@H](Cc1c[nH]c2ccccc12)C(=O)N[C@H](CC(C)C)C(=O)N[C@@H](C(=O)N[C@H](CCC(N)=O)C(=O)N[C@@H](C(=O)N[C@H](CCCCN)C(=O)N[C@@H](C(=O)N[C@@H](C(=O)N[C@@H](CC(=O)O)C(N)=O)[C@H](C)O)[C@@H](C)CC)[C@H](C)O)[C@@H](C)CC)[C@H](C)CC)[C@@H](C)CC)[C@H](C)O (stereo partly specified),> 1900,0.51,> 1000,0.11
CCCCC(NC(=O)[C@H](CCC(=O)O)NC(=O)[C@H](CC(=O)O)NC(=O)[C@H](CO)NC(=O)[C@H](Cc1ccccc1)NC(=O)[C@H](CO)NC(=O)CNC(=O)[C@H](CC(=O)O)NC(=O)CNC(=O)[C@@H](N)Cc1cnc[nH]1)C(=O)N[C@H](Cc1ccccc1)C(=O)N[C@H](C(=O)N[C@H](C(=O)N[C@@H](CC(C)C)C(=O)N[C@@H](CC(=O)O)C(=O)N[C@@H](Cc1ccccc1)C(=O)N[C@@H](CC(C)C)C(=O)N[C@@H](C)C(=O)N[C@@H](C)C(=O)N[C@@H](CCCNC(=N)N)C(=O)N[C@@H](CC(=O)O)C(=O)N[C@@H](Cc1ccccc1)C(=O)N[C@H](C(=O)N[C@@H](CC(N)=O)C(=O)N[C@@H](Cc1c[nH]c2ccccc12)C(=O)N[C@@H](CC(C)C)C(=O)N[C@H](C(=O)N[C@@H](CCC(N)=O)C(=O)N[C@H](C(=O)N[C@@H](CCCCN)C(=O)N[C@H](C(=O)N[C@H](C(=O)N[C@@H](CC(=O)O)C(N)=O)[C@@H](C)O)[C@@H](C)CC)[C@@H](C)O)[C@@H](C)CC)[C@@H](C)CC)[C@@H](C)CC)[C@@H](C)O (stereo partly specified),> 16000,0.06,> 1000,0.24
CCCCC(NC(=O)[C@H](CCC(=O)O)NC(=O)[C@H](CC(=O)O)NC(=O)[C@H](CO)NC(=O)[C@H](Cc1ccccc1)NC(=O)[C@H](CO)NC(=O)CNC(=O)[C@H](CC(=O)O)NC(=O)CNC(=O)[C@@H](N)Cc1cnc[nH]1)C(=O)N[C@H](Cc1ccccc1)C(=O)N[C@H](C(=O)N[C@H](C(=O)N[C@@H](CC(C)C)C(=O)N[C@@H](CC(=O)O)C(=O)N[C@@H](Cc1ccccc1)C(=O)N[C@@H](CC(C)C)C(=O)N[C@@H](C)C(=O)N[C@@H](C)C(=O)N[C@@H](CCCNC(=N)N)C(=O)N[C@@H](CC(=O)O)C(=O)N[C@@H](Cc1ccccc1)C(=O)N[C@H](C(=O)N[C@@H](CC(N)=O)C(=O)N[C@@H](Cc1c[nH]c2ccccc12)C(=O)N[C@@H](CC(C)C)C(=O)N[C@H](C(=O)N[C@@H](CCC(N)=O)C(=O)N[C@H](C(=O)N[C@@H](CCCCN)C(=O)N[C@H](C(=O)N[C@H](C(=O)N[C@@H](CC(=O)O)C(=O)O)[C@@H](C)O)[C@@H](C)CC)[C@@H](C)O)[C@@H](C)CC)[C@@H](C)CC)[C@@H](C)CC)[C@@H](C)O (stereo partly specified),> 16000,0.06,> 1000,0.15
CCCCC(NC(=O)[C@H](CCC(=O)O)NC(=O)[C@H](CC(=O)O)NC(=O)[C@H](CO)NC(=O)[C@H](Cc1ccccc1)NC(=O)[C@H](CO)NC(=O)CNC(=O)[C@H](CC(=O)O)NC(=O)CNC(=O)[C@@H](N)Cc1cnc[nH]1)C(=O)N[C@H](Cc1cccs1)C(=O)N[C@H](C(=O)N[C@H](C(=O)N[C@@H](CC(C)C)C(=O)N[C@@H](CC(=O)O)C(=O)N[C@@H](CC(C)C)C(=O)N[C@@H](CC(C)C)C(=O)N[C@@H](C)C(=O)N[C@H](C(=O)N[C@@H](CCCNC(=N)N)C(=O)N[C@@H](CC(=O)O)C(=O)N[C@@H](Cc1ccccc1)C(=O)N[C@H](C(=O)N[C@@H](CC(N)=O)C(=O)N[C@@H](Cc1c[nH]c2ccccc12)C(=O)N[C@@H](CC(C)C)C(=O)N[C@H](C(=O)N[C@@H](CCC(N)=O)C(=O)N[C@H](C(=O)N[C@@H](CCCCN)C(=O)N[C@H](C(=O)N[C@H](C(=O)N[C@@H](CC(=O)O)C(N)=O)[C@@H](C)O)[C@@H](C)CC)[C@@H](C)O)[C@@H](C)CC)[C@@H](C)CC)[C@@H](C)O)[C@@H](C)CC)[C@@H](C)O (stereo partly specified),> 20000,0.05,> 1000,0.28
CCCCC(NC(=O)[C@H](CCC(=O)O)NC(=O)[C@H](CC(=O)O)NC(=O)[C@H](CO)NC(=O)[C@H](Cc1ccccc1)NC(=O)[C@H](CO)NC(=O)CNC(=O)[C@H](CC(=O)O)NC(=O)CNC(=O)[C@@H](N)Cc1cnc[nH]1)C(=O)N[C@H](Cc1cccs1)C(=O)N[C@H](C(=O)N[C@H](C(=O)N[C@@H](CC(C)C)C(=O)N[C@@H](CC(=O)O)C(=O)N[C@@H](Cc1ccc(O)cc1)C(=O)N[C@@H](CC(C)C)C(=O)N[C@@H](C)C(=O)N[C@@H](C)C(=O)N[C@@H](CCCNC(=N)N)C(=O)N[C@@H](CC(=O)O)C(=O)N[C@@H](Cc1ccccc1)C(=O)N[C@H](C(=O)N[C@@H](CC(N)=O)C(=O)N[C@@H](Cc1c[nH]c2ccccc12)C(=O)N[C@@H](CC(C)C)C(=O)N[C@H](C(=O)N[C@@H](CCC(N)=O)C(=O)N[C@H](C(=O)N[C@@H](CCCCN)C(N)=O)[C@@H](C)O)[C@@H](C)CC)[C@@H](C)CC)[C@@H](C)CC)[C@@H](C)O (stereo partly specified),–,0.07,70,0.52
